From ChEMBL document CHEMBL5543112, “Discovery of CBPD-268 as an Exceptionally Potent and Orally Efficacious CBP/p300 PROTAC Degrader Capable of Achieving Tumor Regression” (J Med Chem, 2024)
Active and inactive are the calls of the source. The calls are words filed in the database; no cut-off is given here.

Tests used:
[1] = Metabolic stability in human liver microsome assessed as half life measured upto 60 mins in presence of NADPH by LC-MS/MS analysis; format: ADME; conditions: liver microsomes
[2] = Volume of distribution at steady state in ICR mouse at 1 mg/kg, iv measured upto 24 hrs by LC/MS-MS analysis; format: ADME, organism-based; conditions: in vivo
[3] = Clearance in Sprague-Dawley rat at 1 mg/kg, iv measured upto 24 hrs by LC/MS-MS analysis; format: ADME, organism-based; conditions: in vivo
[4] = Half life in Sprague-Dawley rat at 3 mg/kg, po measured upto 24 hrs by LC/MS-MS analysis; format: ADME, organism-based; conditions: in vivo
[5] = Metabolic stability in dog plasma assessed as half life measured upto 120 mins by LC-MS/MS analysis; format: ADME, cell-free, Canis lupus familiaris
[6] = Metabolic stability in rat plasma assessed as half life measured upto 120 mins by LC-MS/MS analysis; format: ADME, cell-free
[7] = Plasma protein binding in monkey by LC-MS analysis; format: ADME, cell-free, Macaca mulatta; conditions: rhesus monkey, read-out: PPB (converted)
[8] = target: T1, Cytochrome P450 2B6 (Homo sapiens, UniProt P20813); assay: Inhibition of CYP2B6 (unknown origin) preincubated with compound for 5 mins followed by NADPH addition and measured after 10 mins by LC-MS/MS analysis; format: ADME
T1 sequence (P20813 whole entry): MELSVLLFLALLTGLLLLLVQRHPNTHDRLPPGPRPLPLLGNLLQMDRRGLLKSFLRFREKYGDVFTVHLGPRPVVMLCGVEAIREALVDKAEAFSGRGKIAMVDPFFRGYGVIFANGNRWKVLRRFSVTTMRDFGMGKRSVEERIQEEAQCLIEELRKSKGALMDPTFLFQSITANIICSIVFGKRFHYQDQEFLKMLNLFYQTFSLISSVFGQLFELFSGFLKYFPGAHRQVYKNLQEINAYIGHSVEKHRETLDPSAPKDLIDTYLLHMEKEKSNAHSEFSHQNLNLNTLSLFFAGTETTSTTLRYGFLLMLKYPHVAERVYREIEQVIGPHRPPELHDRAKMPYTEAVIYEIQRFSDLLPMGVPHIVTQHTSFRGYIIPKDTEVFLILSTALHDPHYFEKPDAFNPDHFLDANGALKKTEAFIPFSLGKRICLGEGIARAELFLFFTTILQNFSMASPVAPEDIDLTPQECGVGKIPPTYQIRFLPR

[9] = target: Cytochrome P450 2C9 (Homo sapiens, UniProt P11712); assay: Inhibition of CYP2C9 (unknown origin) preincubated with compound for 5 mins followed by NADPH addition and measured after 10 mins by LC-MS/MS analysis; format: ADME
[10] = Drug distribution in SCID mouse plasma at 0.3 mg/kg, po measured at 6 hrs by LC-MS/MS analysis; format: ADME, organism-based
[11] = Drug distribution in SCID mouse plasma at 1 mg/kg, po measured at 1 hr by LC-MS/MS analysis; format: ADME, organism-based
[12] = Drug distribution in SCID mouse tumor at 0.3 mg/kg, po measured at 6 hrs by LC-MS/MS analysis; format: ADME, organism-based, Neoplasm; conditions: read-out: Ct
[13] = Drug distribution in SCID mouse liver at 0.3 mg/kg, po measured at 6 hrs by LC-MS/MS analysis; format: ADME, organism-based; conditions: read-out: Ct
[14] = Drug distribution in SCID mouse liver at 0.3 mg/kg, po measured at 24 hrs by LC-MS/MS analysis; format: ADME, organism-based; conditions: read-out: Ct
[15] = Drug distribution in SCID mouse liver at 3 mg/kg, po measured at 1 hr by LC-MS/MS analysis; format: ADME, organism-based; conditions: read-out: Ct
[16] = Drug distribution in SCID mouse spleen at 0.3 mg/kg, po measured at 1 hr by LC-MS/MS analysis; format: ADME, organism-based; conditions: read-out: Ct
[17] = Drug concentration in SCID mouse tumor at 1 mg/kg, po measured at 1 hr by LC-MS/MS analysis; format: ADME, organism-based, Neoplasm; conditions: read-out: Ct
[18] = Drug concentration in SCID mouse tumor at 1 mg/kg, po measured at 6 hrs by LC-MS/MS analysis; format: ADME, organism-based, Neoplasm; conditions: read-out: Ct
[19] = Drug concentration in SCID mouse tumor at 1 mg/kg, po measured at 24 hrs by LC-MS/MS analysis; format: ADME, organism-based, Neoplasm; conditions: read-out: Ct
[20] = tested on: CWR22R; assay: Antitumor activity against human 22Rv1 cells xenografted in SCID mouse assessed as reduction in BRD2 level in tumor at 1 to 3 mg/kg, po measured at 6 to 24 hrs by Western blotting analysis; format: functional, organism-based; conditions: dose 1-3 mg/kg, time 6-24 hrs
[21] = tested on: CWR22R; assay: Antitumor activity against human 22Rv1 cells xenografted in SCID mouse assessed as reduction in BRD4 level in tumor at 1 to 3 mg/kg, po measured at 6 to 24 hrs by Western blotting analysis; format: functional, organism-based; conditions: dose 1-3 mg/kg, time 6-24 hrs
[22] = tested on: VCaP; assay: Antitumor activity against human VCaP cells xenografted in SCID mouse assessed as tumor regression at 3 mg/kg, po administered 3 times a week for 4 weeks; format: functional
[23] = Toxicity in SCID mouse xenografted with human VCaP cells assessed as loss of body weight at 1 to 3 mg/kg, po measured up to 48 days; format: organism-based; conditions: in vivo, 1152 h, dose 1-3 mg/kg, time < 48 day
[24] = Drug distribution in Sprague-Dawley rat plasma at 10 mg/kg, po measured at 24 hrs by LC-MS/MS analysis; format: ADME, organism-based
[25] = Drug distribution in Sprague-Dawley rat kidney at 3 mg/kg, po measured at 6 hrs by LC-MS/MS analysis; format: ADME, organism-based; conditions: read-out: Ct
[26] = Drug distribution in Sprague-Dawley rat kidney at 10 mg/kg, po measured at 1 hr by LC-MS/MS analysis; format: ADME, organism-based; conditions: read-out: Ct
[27] = Drug distribution in Sprague-Dawley rat liver at 3 mg/kg, po measured at 6 hrs by LC-MS/MS analysis; format: ADME, organism-based; conditions: read-out: Ct
[28] = Drug distribution in Sprague-Dawley rat spleen at 10 mg/kg, po measured at 24 hrs by LC-MS/MS analysis; format: ADME, organism-based; conditions: read-out: Ct
[29] = Toxicity in immune-competent Sprague-Dawley rat assessed as change in red blood cells count at 1 to 10 mg/kg, po administered twice a week for 5 weeks; format: organism-based; conditions: in vivo, 840 h, dose 1-10 mg/kg
[30] = Toxicity in immune-competent Sprague-Dawley rat assessed as change in neutrophil at 1 to 10 mg/kg, po administered twice a week for 5 weeks; format: organism-based; conditions: in vivo, 840 h, dose 1-10 mg/kg
[31] = Toxicity in immune-competent Sprague-Dawley rat assessed as change in basophil at 1 to 10 mg/kg, po administered twice a week for 5 weeks; format: organism-based; conditions: in vivo, 840 h, dose 1-10 mg/kg
[32] = Toxicity in immune-competent Sprague-Dawley rat assessed as change in creatinine level at 1 to 10 mg/kg, po administered twice a week for 5 weeks; format: organism-based; conditions: in vivo, 840 h, dose 1-10 mg/kg
[33] = Toxicity in immune-competent Sprague-Dawley rat assessed as change in calcium level at 1 to 10 mg/kg, po administered twice a week for 5 weeks; format: organism-based; conditions: in vivo, 840 h, dose 1-10 mg/kg
[34] = Toxicity in immune-competent Sprague-Dawley rat assessed as change in alanine aminotransferase level at 1 to 10 mg/kg, po administered twice a week for 5 weeks; format: organism-based; conditions: in vivo, 840 h, dose 1-10 mg/kg
[35] = Toxicity in immune-competent Sprague-Dawley rat assessed as decrease in glucose level at 10 mg/kg, po administered twice a week for 5 weeks; format: organism-based; conditions: in vivo, 840 h

Chain of Cytochrome P450 2C9 (P11712 whole entry): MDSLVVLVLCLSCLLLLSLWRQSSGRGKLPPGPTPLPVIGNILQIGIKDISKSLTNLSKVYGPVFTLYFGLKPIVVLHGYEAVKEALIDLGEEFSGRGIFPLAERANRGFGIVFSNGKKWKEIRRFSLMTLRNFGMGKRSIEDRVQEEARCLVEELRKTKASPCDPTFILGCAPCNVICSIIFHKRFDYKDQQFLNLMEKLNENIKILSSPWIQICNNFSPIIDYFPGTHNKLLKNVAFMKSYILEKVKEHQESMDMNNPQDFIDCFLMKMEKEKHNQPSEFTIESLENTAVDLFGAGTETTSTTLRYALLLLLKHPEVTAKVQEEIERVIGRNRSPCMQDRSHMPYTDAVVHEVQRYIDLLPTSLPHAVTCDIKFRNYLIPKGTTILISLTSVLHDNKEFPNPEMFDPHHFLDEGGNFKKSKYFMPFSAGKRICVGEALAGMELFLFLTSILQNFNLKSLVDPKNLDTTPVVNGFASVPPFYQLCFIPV

CC(=O)N1CCc2c(c(N3CCCc4cc(-c5cnn(C)c5)c(C(F)F)cc43)nn2[C@H]2CC[C@H](CN3Cc4cc5c(cc4C3)C(=O)N(C3CCC(=O)NC3=O)C5=O)CC2)C1 (stereo not given in full)
half-life [1]: 0.8 h
Vdss [2]: 4.9 L/kg
clearance [3]: 34.6 mL/min/kg
half-life [4]: 1.3 h
half-life [5]: 1.3 h
half-life [6]: 0.8 h
fraction unbound [7]: 0.009
IC50 [8]: > 10 µM
IC50 [9]: > 10 µM
concentration at 6 h [10]: 12.7 ng/mL
concentration at 1 h [11]: 212 ng/mL
concentration at 6 h [12]: 14.4 ng/g
concentration at 6 h [13]: 86.8 ng/mL
concentration at 24 h [14]: 5.6 ng/mL
concentration at 1 h [15]: 3300 ng/mL
concentration at 1 h [16]: 91 ng/mL
concentration at 1 h [17]: 30.8 ng/g
concentration at 6 h [18]: 12.6 ng/g
concentration at 24 h [19]: 6.3 ng/g
Activity [20]: Active
Activity [21]: Active
Activity [22]: 67%
Activity [23]: < 7%
concentration at 24 h [24]: 1.3 ng/mL
concentration at 6 h [25]: 59.2 ng/g
concentration at 1 h [26]: 1170 ng/g
concentration at 6 h [27]: 148 ng/g
concentration at 24 h [28]: 12.6 ng/g
Activity [29]: Non-Toxic
Activity [30]: Non-Toxic
Activity [31]: Non-Toxic
Activity [32]: Non-Toxic
Activity [33]: Non-Toxic
Activity [34]: Non-Toxic
Activity [35]: Non-Toxic
